Assay results from patent US6689381B2, “Liposomal benzoquinazoline thymidylate synthase inhibitor formulations” (OSI Pharmaceuticals, Inc., priority 2000, dated 2004).
Several values for one entry are separate records, joined by “and”; a condition that tells them apart may be missing. Equal entries are not always repeated. Where two headings read alike, the source gives them in different places.

Legend:
[1] = Example 2: single dose plasma pharmacokinetics of free GW1843 and four liposomal formulations, 1 mg/kg iv bolus; type: in vivo, Sprague Dawley rats; conditions: single 1 mg/kg iv bolus; for GW1843 Plasma Concentration: listed as Free GW1843, 1 mg/kg
Description: The plasma pharmacokinetics of free GW1843 and 4 different liposome formulations (see Table 1A; GC-1007-27, GC-1020-36, NA-1022-63A, and NA-1022-59A) of GW1843 in rats following a single intravenous bolus administration are compared. The liposome formulations differed by the pH utilized to load the liposome. NX1843 lot nos. GC-1007-27, GC-1020-36, NA-1022-63A, and NA-1022-59A were loaded at pH 7.0, 7.4, 7.3 and 7.5, respectively.
A total of fifteen Sprague Dawley rats were used in the study. Each rat weighed approximately 250 grams. Three animals were assigned to each group (five groups in total). Individual animals were weighed and dosed at 1 mg/kg body weight by intravenous bolus administration into the tail vein while under isoflurene anesthesia. EDTA blood samples were taken at the time points shown in Table 2 while under isoflurene anesthesia and immediately processed into plasma. Plasma was stored at −20° C. until analysis.
Plasma samples were prepared and analyzed for GW1843 by the use of a non-validated HPLC assay. Following methanol precipitation of plasma protein, the soluble GW1843 was separated by C-18 reverse phase column chromatography. Separation was achieved by an isocratic method. Running buffer consisted of 80% acetonitrile and 20% 100 mM ammonium acetate pH=5.3. Area under the peak versus concentration of GW1843 was used to construct the standard curve.
Pharmacokinetic parameters were determined by non-compartmental analysis (WinNonlin version 1.5). Pharmacokinetic parameters were determined for each experimental group using the average concentration versus time values for each group. The following parameters were calculated: Maximum plasma concentration (Cmax); area under the plasma concentration versus time curve extrapolating to infinite time (AUCinf) or to last time point (AUClast); elimation half-life (Elim.T½); mean residence time (MRT) plasma clearance (Cl) and volume of distribution at steady state (Vss).

[2] = tested on: human colon tumor xenograft model (HCT-8, thymidine kinase (TK)-/-); experiment: HCT-8 xenograft, second study: liposomal GW1843U89 versus free drug (Table 26); type: in vivo, Female Nu/Nu mice
Description: Female Nu/Nu mice (18-24 g, 10-14 weeks old) were obtained from Harlan Sprague Dawley, and housed in microisolator filtration racks and maintained with filtered acidified water and sterile lab chow ad libitum. The human colon tumor xenograft model (HCT-8, thymidine kinase (TK)−/−) was obtained from Dr. Youcef M. Rustum (Roswell Park, Buffalo, N.Y.), and established in-house as a useful model for evaluation of thymidylate synthase inhibitors. Animals were allowed to acclimate to their new environment for 1 week prior to tumor cell implantation. Tumors were established by injecting harvested tumor cells in a single subcutaneous site on the flank of the mice in the axillary region. The tumors were grown until approximately 200+/−50 mm^3 in size. The animals were then sorted according to body weight, grouped four animals/cage, and tattooed on the tail for permanent identification. […] Tumor volumes were determined with vernier caliper measurements taken at right angles using the formula, (L×W^2/2) and body weights, were collected twice weekly. Data was plotted as % change in body weight vs. time in days, and % tumor volume increase vs. days.
(§1) T=(mean) time in days for treated group to reach cutoff size (2 grams)
(§2) C=(mean) time in days for control group to reach cutoff size (2 grams)
(§3) WC is the mean tumor weight of control group at time x
(§4) Wt is mean tumor weight of treated group at time x
% Regression=100 (Wo−Wi)/Wo; where Wo is the mean tumor weight for treated group at the initiation of treatment and Wi=the mean tumor weight for that group at time some time x after treatment. Many times the time x=24-48 hr after the final dose of therapy.
The log10 cell kill (gross)=[T−C value in days/(3.32)(Td)
Where T−C=time difference in days between Treated and Control tumors to reach a defined end point; and Td is the Tumor Volume Doubling time in days from the best-fit straight line from a log-linear growth plot of the control tumors exponential growth (100-800 mg range). […]

[3] = tested on: human colon tumor xenograft model (HCT-8, thymidine kinase (TK)-/-); experiment: HCT-8 xenograft, NX1843 dose schedule study and combinations with 5-FU, NX211 and GW1843 (Table 27); type: in vivo, nude mice
Procedure: Female Nu/Nu mice (18-24 g, 10-14 weeks old) were obtained from Harlan Sprague Dawley, and housed in microisolator filtration racks and maintained with filtered acidified water and sterile lab chow ad libitum. […] Animals were allowed to acclimate to their new environment for 1 week prior to tumor cell implantation. Tumors were established by injecting harvested tumor cells in a single subcutaneous site on the flank of the mice in the axillary region. The tumors were grown until approximately 200+/−50 mm^3 in size. The animals were then sorted according to body weight, grouped four animals/cage, and tattooed on the tail for permanent identification. Groups consisting of 8 tumor-bearing mice each were administered weekly doses of experimental agents by IV bolus injection through the tail vein. Tumor volumes were determined with vernier caliper measurements taken at right angles using the formula, (L×W^2/2) and body weights, were collected twice weekly. Data was plotted as % change in body weight vs. time in days, and % tumor volume increase vs. days.
as §1, §2, §3, §4
% Regression=100 (Wo−Wi)/Wo; where Wo is the mean tumor weight for treated group at the initiation of treatment and Wi=the mean tumor weight for that group at time some time x after treatment.
In addition to these dose groups the free drug was dosed at 100 mg/kg on days 1-5, and repeated for a second week.

[4] = Sprague Dawley, rat, plasma, rats ~250 g, noncompartmental, group average

## Cc1nc2ccc3ccc(CNc4ccc5c(c4)CN(C(CCC(=O)O)C(=O)O)C5=O)cc3c2c(=O)[nH]1 (stereo not shown) [GW1843]
[1]; 0.083 h, individual rats
  GW1843 Plasma Concentration: 0.76 µg/mL
[1]; 0.250 h, individual rats
  GW1843 Plasma Concentration: 0.20 µg/mL and 0.19 µg/mL
[1]; 0.500 h, individual rats
  GW1843 Plasma Concentration: 0.11 µg/mL and 0.10 µg/mL
[1]; 1.000 h, individual rats
  GW1843 Plasma Concentration: BLQ and 0.06 μg/mL
[1]; Sprague Dawley, rat, plasma, iv, 1 mg/kg, 0.083 h, individual rats
  concentration at 0.083 h: 520 ng/mL
[1]; Sprague Dawley, rat, plasma, iv, 1 mg/kg, 0.250 h, individual rats
  concentration at 0.25 h: 180 ng/mL
[1]; Sprague Dawley, rat, plasma, iv, 1 mg/kg, 0.500 h, individual rats
  concentration at 0.5 h: 100 ng/mL
[1]; Sprague Dawley, rat, plasma, iv, 1 mg/kg, 1.000 h, individual rats
  concentration at 1 h: 60 ng/mL
[1]; Sprague Dawley, rat, plasma, iv, 1 mg/kg, rats ~250 g, noncompartmental, group average, read-out: Cmax
  Cmax: 1280 ng/mL
[1]; Sprague Dawley, rat, plasma, iv, 1 mg/kg, rats ~250 g, noncompartmental, group average, read-out: t½ (elimination half-life) (converted)
  half-life: ~30 min
[1]; Sprague Dawley, rat, plasma, iv, 1 mg/kg, rats, text of Example 2, read-out: maximum achieved concentrations (Cmax) in the plasma
  Cmax: 1300 ng/mL
[1]; [4]
  AUC(0-inf): 263 ng·h/mL
  AUC(0-t): 219 ng·h/mL
  MRT inf: 30 min
[1]; Sprague Dawley, rat, plasma, rats ~250 g, noncompartmental, group average, read-out: Cl (converted)
  clearance: 63.4 mL/min/kg
[1]; Sprague Dawley, rat, plasma, rats ~250 g, noncompartmental, group average, read-out: Vss
  Vd: 1.89 L/kg
[1]; Sprague Dawley, rat, plasma, rats, text of Example 2, read-out: plasma clearance (converted)
  clearance: 63.4 mL/min
[2]; 25 mg/kg every day (total 350 mg/kg)
  log cell kill: 1.5
[2]; 50 mg/kg every day (total 700 mg/kg)
  log cell kill: 3.5
[2]; 25 and 50 mg/kg every day
  tumor regression: no tumor regression occurred
[3]; 100 mg/kg, QD1-5 × 2
  % TGI: 80%
  Cures: 0
  LCK: 2.4
[3]; 100 mg/kg, QD1-5 × 2, day 22
  % Regression day 22: 0%
[3]; iv, NX1843 25 mg/kg d1,8, 15 mg/kg QD(1,3,5)×2 or 7.5 mg/kg QD(1-5)×2, GW1843 100 mg/kg d1-5 ×2, 5FU 100 mg/kg d1,8, NX211 6 mg/kg d1,8, combinations at same doses
  log cell kill (LCK): 2.4
